Structures can show the parent of a compound that is named as a salt.
melting point [°C]	Compound
> 200	Nc1cccc(-c2ccc(CCN3CCN(CCc4ccccc4)CC3)cc2OC2CCCC2)n1 (as salt: hydrochloride)
148 to 165	CC(C)Oc1cc(C(O)CN2CCN(CCc3ccccc3)CC2)ccc1-c1cccc(N)n1 (centres unmarked) (as salt: hydrochloride)

— patent US6362195B1, “Branched alkoxy-substituted 2-aminopyridines as NOS inhibitors” (Pfizer Inc., priority 1997, dated 2002)
